Like-named read-outs stand apart in the source and are kept apart here.
Target: SARS-CoV-2 3CLpro (Severe acute respiratory syndrome coronavirus 2, UniProt P0DTD1)
Assay: biochemical
[1] = read-out: IC50 (μM), SARS-CoV-2 3CLPro assay
[2] = IC50 (μM), SARS-CoV-2 3CLPro assay

SMILES | IC50 [1] [µM] | IC50 [2] [µM]
CCC(Cl)C(=O)N(CCC(N)=O)NC(=O)[C@H](CC(C)C)NC(=O)OCc1ccccc1 (stereo partly drawn) [Example 5, Benzyl N-[(1S)-1-[[(3-amino-3-oxo-propyl)-(2-chlorobutanoyl)amino]carbamoyl]-3-methyl-butyl]carbamate] | 1.76 | 
NC(=O)CCN(NC(=O)[C@H](CC1CCCCC1)NC(=O)OCc1ccccc1)C(=O)CCl [Example 8, Benzyl N-[(1S)-2-[2-(3-amino-3-oxo-propyl)-2-(2-chloroacetyl)hydrazino]-1-(cyclohexylmethyl)-2-axo-ethyl]carbamate] | 0.008 | 
CC(C)C[C@H](NC(=O)c1nc2ccccc2[nH]1)C(=O)NN(CCC(N)=O)C(=O)CCl [Example 42, N-[(1S)-1-[[(3-Amino-3-axo-propyl)-(2-chloroacetyl)amino]carbamoyl]-3-methyl-butyl]-1H-benzimidazole-2-carboxamide] | 0.005 | 
CC(C)C[C@H](NC(=O)c1cc2ccccc2[nH]1)C(=O)NN(C[C@@H]1CCNC1=O)C(=O)CF (single isomer, unassigned) [Example 38-A] |  | 0.074
CC(C)C[C@H](NC(=O)OCc1ccccc1)C(=O)NN(CC1CCNC1=O)C(=O)CCl (stereo partly drawn) [Example 18, Benzyl N-[(1S)-1-[[(2-chloroacetyl)-[(2-oxo-pyrrolidin-3-yl)methyl]amino]carbamoyl]-3-methyl-butyl]carbamate] | 0.017 | 
COc1cccc2[nH]c(C(=O)N[C@@H](CC3CCCCC3)C(=O)NN(CCC(N)=O)C(=O)[C@H](F)Cl)cc12 [Example 56-A, N-[(1S)-2-[2-(3-amino-3-oxo-propyl)-2-[(2R)-2-chloro-2-fluoro-acetyl]hydrazino]-1-(cyclohexylmethyl)-2-axo-ethyl]-4-methoxy-1H-indole-2-carboxamide] | 0.008 | 
CC(C)C[C@H](NC(=O)/C=C/c1ccccc1)C(=O)NN(CCC(N)=O)C(=O)[C@H](F)Cl (single isomer, unassigned) [Example 86-A] |  | 0.75
CC(C)C[C@H](NC(=O)c1cc2ccccc2[nH]1)C(=O)NN(CC1CCNC1=O)C(=O)CF (stereo partly drawn) [Example 38, N-[(1S)-1-[[(2-fluoroacetyl)-[(2-oxo-pyrrolidin-3-yl)methyl]amino]carbamoyl]-3-methyl-butyl]-1H-indole-2-carboxamide] |  | 0.29
CC(C)C[C@H](NC(=O)OCc1ccccc1)C(=O)NN(CC1CCCNC1=O)C(=O)CCl (stereo partly drawn) [Example 20, Benzyl N-[(1S)-1-[[(2-chloroacetyl)-[(2-oxo-3-piperidyl)methyl]amino]carbamoyl]-3-methyl-butyl]carbamate] |  | 0.0046
CC(C)C[C@H](NC(=O)OCc1ccccc1)C(=O)NN(CCC(N)=O)C(=O)[C@H](F)Cl (single isomer, unassigned) [Example 17-B] |  | 0.077
CC(C)C[C@H](NC(=O)c1cc2ccccc2[nH]1)C(=O)NN(CC1CCNC1=O)C(=O)CCl (mixture of isomers) [Example 51, N-[(1S)-1-[[(2-Chloroacetyl)-[(2-oxo-pyrrolidin-3-yl)methyl]amino]carbamoyl]-3-methyl-butyl]-1H-indole-2-carboxamide] |  | 0.004
NC(=O)CCN(NC(=O)[C@H](CC1CCCCC1)NC(=O)OCc1ccccc1)C(=O)[C@H](F)Cl (single isomer, unassigned) [Example 16-B] |  | 0.002
NC(=O)CCN(NC(=O)[C@H](CC1CCCCC1)NC(=O)OCc1ccccc1)C(=O)C(F)Cl (stereo partly drawn) [Example 16, Benzyl N-[(1S)-2-[2-(3-amino-3-oxo-propyl)-2-(2-chloro-2-fluoro-acetyl)hydrazino]-1-(cyclohexylmethyl)-2-axo-ethyl]carbamate] |  | 0.009
COc1cccc2[nH]c(C(=O)N[C@@H](CC3CCCCC3)C(=O)NN(CCC(N)=O)C(=O)[C@H](F)Cl)cc12 [Example 56-B, N-[(1S)-2-[2-(3-amino-3-oxo-propyl)-2-[(2S)-2-chloro-2-fluoro-acetyl]hydrazino]-1-(cyclohexylmethyl)-2-axo-ethyl]-4-methoxy-1H-indole-2-carboxamide] | 0.003 | 
COc1cccc2[nH]c(C(=O)N[C@@H](CC(C)C)C(=O)NN(CCC(N)=O)C(=O)C(F)Cl)cc12 (stereo partly drawn) [Example 49, 4-Methoxy-N-[(1S)-1-[[(3-amino-3-oxo-propyl)-(2-chloro-2-fluoro-acetyl)amino]carbamoyl]-3-methyl-butyl]-1H-indole-2-carboxamide] | 0.015 | 
CC1(C[C@H](NC(=O)c2cc(C(F)(F)F)on2)C(=O)NN(C[C@@H]2CCNC2=O)C(=O)[C@H](F)Cl)CC1 [Example 98, N—((S)-1-(2-((R)-2-Chloro-2-fluoroacetyl)-2-(((S)-2-axopyrrolidin-3-yl)methyl)hydrazineyl)-3-(1-methylcyclopropyl)-1-oxopropan-2-yl)-5-(trifluoromethyl)isoxazole-3-carboxamide] | 0.017 | 
CC(C)C[C@H](NC(=O)c1cc2ccccc2[nH]1)C(=O)NN(CCC(N)=O)C(=O)[C@H](F)Cl (single isomer, unassigned) [Example 41-B] |  | 0.034

SMILES | IC50 [1] [µM] | IC50 [2] [µM]
COc1cccc2[nH]c(C(=O)NC(CC(C)C)C(=O)NN(CCC(N)=O)C(=O)[C@@H](F)Cl)cc12 (mixture of isomers) [Example 54-A, 4-Methoxy-N-[rac-(1S)-1-[[(3-amino-3-oxo-propyl)-[(2S)-2-chloro-2-fluoro-acetyl]amino]carbamoyl]-3-methyl-butyl]-1H-indole-2-carboxamide] |  | 0.004
NC(=O)CCN(NC(=O)[C@H](CC1CCCCC1)NC(=O)c1cc2ccccc2[nH]1)C(=O)CF [Example 36, N-[(1S)-2-[2-(3-Amino-3-axo-propyl)-2-(2-fluoroacetyl)hydrazino]-1-(cyclohexylmethyl)-2-axo-ethyl]-1H-indole-2-carboxamide] | 0.14 | 
CC(C)C[C@H](NC(=O)c1cc2cc(Cl)ccc2[nH]1)C(=O)NN(CCC(N)=O)C(=O)[C@@H](F)Cl (racemic) [Example 58-A, 5-Chloro-N-[rac-(1S)-1-[[(3-amino-3-oxo-propyl)-[rac-(2S)-2-chloro-2-fluoro-acetyl]amino]carbamoyl]-3-methyl-butyl]-1H-indole-2-carboxamide] |  | 0.032
NC(=O)CCN(NC(=O)[C@H](CC1CC1)NC(=O)OCc1ccccc1)C(=O)CCl [Example 11, Benzyl N-[(1S)-2-[2-(3-amino-3-oxo-propyl)-2-(2-chloroacetyl)hydrazino]-1-(cyclopropylmethyl)-2-axo-ethyl]carbamate] | 0.023 | 
CC(C)C[C@H](NC(=O)/C=C/c1ccccc1)C(=O)NN(CCC(N)=O)C(=O)[C@@H](F)Cl (single isomer, unassigned) [Example 86-B] |  | 0.023
NC(=O)CCN(NC(=O)[C@H](CC1CCCCC1)NC(=O)c1cc2ccccc2[nH]1)C(=O)[C@H](F)Cl [Example 59-B, N-[(1S)-2-[2-(3-amino-3-oxo-propyl)-2-[(2R)-2-chloro-2-fluoro-acetyl]hydrazino]-1-(cyclohexylmethyl)-2-axo-ethyl]-1H-indole-2-carboxamide] | 0.005 | 
COc1cccc(NCC(=O)N[C@@H](CC(C)C)C(=O)NN(CCC(N)=O)C(=O)[C@H](F)Cl)c1 (single isomer, unassigned) [Example 83-A] |  | 0.9
CN(C(=O)c1cc2ccccc2[nH]1)[C@@H](CC1CCCCC1)C(=O)NN(CCC(N)=O)C(=O)CCl [Example 39, N-[(1S)-2-[2-(3-Amino-3-axo-propyl)-2-(2-chloroacetyl)hydrazino]-1-(cyclohexylmethyl)-2-axo-ethyl]-N-methyl-1H-indole-2-carboxamide] | 0.002 | 
CC(C)C[C@H](NC(=O)c1cc2ccccc2[nH]1)C(=O)NN(CCC(N)=O)C(=O)[C@@H](F)Cl (single isomer, unassigned) [Example 41-A] |  | 0.005
NC(=O)CCN(NC(=O)[C@H](CC1CCC1)NC(=O)c1nc2ccccc2[nH]1)C(=O)C(F)Cl (mixture of isomers) [Example 66, N-[rac-(1S)-2-[2-(3-amino-3-oxo-propyl)-2-(2-chloro-2-fluoro-acetyl)hydrazino]-1-(cyclobutylmethyl)-2-axo-ethyl]-1H-benzimidazole-2-carboxamide] |  | 0.034
Cc1oncc1C(=O)N[C@@H](CC(C)C)C(=O)NN(CCC(N)=O)C(=O)CCl [Example 46, N-[(1S)-1-[[(3-Amino-3-oxo-propyl)-(2-chloroacetyl)amino]carbamoyl]-3-methyl-butyl]-5-methyl-isoxazole-4-carboxamide] | 0.07 | 
CCCN(NC(=O)[C@H](CC(C)C)NC(=O)OCc1ccccc1)C(=O)CCl [Example 21, Benzyl N-[(1S)-1-[[(2-chloroacetyl)-propyl-amino]carbamoyl]-3-methyl-butyl]carbamate] | 0.39 | 
COc1cc2cc(C(=O)N[C@@H](CC(C)C)C(=O)NN(CCC(N)=O)C(=O)CCl)nc-2c[nH]1 [Example 47, N-[(1S)-1-[[(3-Amino-3-oxo-propyl)-(2-chloroacetyl)amino]carbamoyl]-3-methyl-butyl]-5-methoxy-6H-pyrrolo[2,3-c]pyridine-2-carboxamide] | 0.014 | 
NC(=O)CCN(NC(=O)[C@H](CC1CCCCC1)NC(=O)c1cc2ccccc2[nH]1)C(=O)[C@@H](F)Cl [Example 59-A, N-[(1S)-2-[2-(3-amino-3-oxo-propyl)-2-[(2S)-2-chloro-2-fluoro-acetyl]hydrazino]-1-(cyclohexylmethyl)-2-axo-ethyl]-1H-indole-2-carboxamide] | 0.023 | 
Cc1cc(C(=O)N[C@@H](CC(C)C)C(=O)NN(CCC(N)=O)C(=O)CCl)no1 [Example 29] |  | 0.034
COc1cccc2[nH]c(C(=O)N[C@@H](CC3CCCCC3)C(=O)NN(CCC(N)=O)C(=O)CCl)cc12 [Example 32, N-[(1S)-2-[2-(3-Amino-3-axo-propyl)-2-(2-chloroacetyl)hydrazino]-1-(cyclohexylmethyl)-2-axo-ethyl]-4-methoxy-1H-indole-2-carboxamide] |  | 0.002
NC(=O)CCN(NC(=O)[C@H](CC1CCCCC1)NC(=O)/C=C/c1ccc(Cl)cc1F)C(=O)CCl [Example 33, 3-[(2-Chloroacetyl)-[[(2S)-2-[[(E)-3-(4-chloro-2-fluoro-phenyl)prop-2-enoyl]amino]-3-cyclohexyl-propanoyl]amino]amino]propanamide] | 0.002 | 

Source: patent publication US12060333B2 (Hoffmann-La Roche Inc., priority 2021, dated 2024)
